Test results from a melting point compilation (Tetko et al.; mined from patent text by program, amines drawn as free bases though some values may be those of a salt).

melting point [°C] | SMILES
124 to 125 | Cc1oc(-c2cccc(CCc3ccccc3)c2)nc1CCOc1ccc(OC(C)(C)C(=O)O)cc1
151 to 152 | COc1ccnc(CSc2nc3cc4c(cc3[nH]2)OC(F)(F)O4)c1
205 to 207 | Cc1c(C)c2c(c(C)c1NC(=O)CC(C)(C)C)C(O)(c1ccccn1)C(C)(C)O2 (configuration not stated)
106 to 108 | CN(C)C1CCN(c2nccc(Oc3ccc(NC(=O)c4cc(F)cc(N5CCOCC5)c4)c4ccccc34)n2)C1 (configuration not stated)
114 to 118 | O=C1c2cccc(O)c2CN1C1CCN(CCC(c2ccccc2)c2ccccc2)CC1
120 to 122 | CC1Sc2ccccc2N1C(=S)Nc1cccc(Cl)c1 (configuration not stated)
168 to 169 | COc1ccc2c(c1)C(c1ccccc1)NC(=O)N2CC(F)(F)F (configuration not stated)
271 to 272 | N#Cc1cc2[nH]cc(C(=O)O)c2cc1-c1ccc(C2(CO)CC2)cc1
> 220 | O=[N+]([O-])c1cccc(-c2cnc3[nH]c4ccccc4c3c2)c1
86 to 87 | COP(=O)(CC(=O)[C@@H]1COC(C)(C)N1C(=O)OC(C)(C)C)OC
114 to 115 | CS(=O)(=O)c1cccc(-c2ccccc2N)c1
79 to 81 | CC1(C)C(c2ccc(S(C)(=O)=O)cc2)=C(c2ccccc2)C1O (configuration not stated)
67.5 to 69 | CC(C)(C)c1cc(CCCO)cc(C(C)(C)C)c1O
251 to 254 | CC(=O)Nc1cccc(C2=CCNc3c(C#N)cnn32)c1
93 to 94.5 | CC(c1ccc(O)cc1)(c1ccc(O)cc1)C(F)(F)F
173 to 174 | Cc1c(NC(=O)CCCC(=O)c2ccc(Cl)cc2)ccc2cc(CN3CCCC3)cnc12
82 to 85 | CC(C)c1noc([C@]2(C)CC[C@H](NCC(=O)N3C[C@@H](F)C[C@H]3C#N)C2(C)C)n1
104 to 106 | O=C(NCCSCc1ccc(Cl)cc1)c1c(Cl)cccc1Cl
71 to 73 | NC(=O)c1cccc(OCCCCC/C=C\c2ccsc2)c1
84 | COc1cc(CCC(=O)C2CCCC2=O)cc(OS(=O)(=O)c2ccc(C)cc2)c1OC (configuration not stated)

melting point [°C] | SMILES
122 to 124 | O=Cc1cccc2ncc(-c3ccccc3)cc12
215 to 220 | CCOC(=O)N1CCN(c2cc3nc(C(C)(C)C)sc3cc2N)CC1
123 to 124 | C(=Nc1ccc(-c2c[nH]cn2)cc1)Nc1ccccc1
133 | COc1ccc(S(=O)(=O)N(CC(N)=O)c2ccc(Cl)cc2Cc2ccccc2C(F)(F)F)cc1OC
68.5 to 69.5 | COc1cc(C(C)O)c(F)cc1Cl (configuration not stated)
174 to 179 | C[C@H](NC(=O)CCC1CCC(=O)N1)C(=O)O (some centres not stated)
82 to 84 | CCn1nnc(C(CO)=C(c2ccc(F)cc2)c2ccc(F)cc2)n1
178 to 179 | N#Cc1cc(C(=O)NNC(=O)c2occ(-c3ccccc3)c2-c2ccccc2)ccc1O
147 to 149 | O=[N+]([O-])c1oc2ccccc2c1-n1ccnc1
274 | Cc1ccc2c(c1)c(N1CCN(C(=O)c3cccs3)CC1)c(C#N)c(=O)n2Cc1ccc(F)cc1
58 to 61 | Cc1nc(N2CCN(Cc3ccccn3)C2=O)sc1C(=O)NCc1cccnc1
100 | CCC(CC)C(=O)Nc1ccco1
161 | O=C(OCC1CO1)c1c(Br)c(Br)c(C(=O)OCC2CO2)c(Br)c1Br (configuration not stated)
179 to 183 | CCCN(CCN1CCN(c2ccc3[nH]ccc3c2)CC1)C1CCc2ccc(O)cc2C1 (configuration not stated)
143 to 144 | CCCCc1nc2c(N)nc3ccccc3c2n1CCCCCCCCNS(=O)(=O)c1ccccc1
77 | O=C(NO)[C@H](CNS(=O)(=O)c1ccc(OCCc2ccccc2)cc1)N1CCOCC1
168 to 170 | COc1ccc(NN=C(Sc2cc(Cl)cc(Cl)c2)C(C)=O)cc1
170 to 171 | CCC1(CO)CS(=O)(=O)c2ccccc2C(c2ccccc2)=N1 (configuration not stated)
30 to 40 | Nc1ccc(N)c(C(=O)c2ccccc2Cl)c1

The remaining lines, values behind:

SMILES | melting point [°C]
Cn1c(=O)c2conc2n(C2CCCCC2)c1=O | 194 to 197
COc1ccc(Nc2ccc(Nc3ncnc4cc(-c5ccc(OC)nc5)sc34)cc2)cc1 | 149 to 159
CN(C)c1ccc(C=C2C=C(C(C)(C)C)C(=O)C(C(C)(C)C)=C2)cc1 | 175
CC(C)(C)OC(=O)n1ccc2cc(-c3ccccc3)ccc21 | 105 to 106
CN(C)CCc1c[nH]c2ccc(CCC(=O)O)cc12 | 195 to 200
CCOC(=O)c1ncn2c1[C@@H]1CCCN1C(=S)c1ccccc1-2 | 227 to 229
COc1cc2ncc(C#N)c(Nc3cccc(N(C)C)c3)c2cc1OC | 246 to 249
COCCN(C(=O)c1cnc(N2CC(C)(C)NC2=O)nc1N)c1cccc(C(F)(F)F)c1 | 192 to 193
NCCCNc1cccc2[nH]ncc12 | 154 to 163
CCOCc1nc2c(N)nc3ccccc3c2n1CC1CCN(Cc2ccccc2)O1 (configuration not stated) | 137 to 138
CC(C)(C)OC(=O)N1CCC(c2noc3c(C(F)(F)F)cccc23)CC1 | 111 to 113
CCCCCS(=O)(=O)NC(=O)OCc1ccc(OCCCC)cc1Oc1ncc(C(F)(F)F)cc1Cl | 124 to 126
O=C(CC(c1ccccc1)(c1ccccc1)c1ccccc1)Nc1ccc(N2CCNCC2)cc1 | 193 to 195
Cc1cc(-c2ccc3c(C(N)=O)nn(-c4ccc(S(N)(=O)=O)cc4)c3c2)ccc1F | 300 to 302
CC(C)(COCC(C)(C)c1ccc(O)cc1)c1ccc(O)cc1 | 69.2 to 70
CCOC(=O)c1cc2cccc(NS(=O)(=O)c3ccccc3C(F)(F)F)c2[nH]1 | 138 to 139
CC1(C)CCC2CCCCC2C1NC=NC#N (configuration not stated) | 228
CN(N)C(=O)NCC(F)F | 81 to 84
CCOCc1cc2cc(Cl)ccc2oc1=Nc1cccc(OC)c1 | 96.5 to 97.5
N#Cc1c(N2CCCCC2)cc(-c2ccc3ccc4cccc5ccc2c3c45)c2c1-c1ccccc1C2=O | 220 to 222
CC1=NCC(=S)Nc2ccc(Cl)cc21 | 201 to 203

SMILES | melting point [°C]
CC(C)C1(C)CC(O)C2(C)CCC3c4ccc(O)cc4CCC3C12 (configuration not stated) | 201 to 205
CCOC(=O)CNC(=O)Oc1ccc([N+](=O)[O-])c2cccnc12 | 121 to 122
c1ccc(CN2CCC(Nc3ccc4[nH]ncc4c3)CC2)cc1 | 150 to 152
C=CCCC(O)=C(C#N)C(=O)Nc1ccc(C(F)(F)F)c(C)c1 | 133
CN(C)C(=O)Nc1snc(S(C)(=O)=O)c1C#N | 243 to 244
CCOC(=O)c1oc2ccc(Cl)cc2c1O | 100 to 102
CC(CCCl)C(=O)Nc1nnc(C(C)(C)C)s1 (configuration not stated) | 124 to 126
COC1CC2CC(OC(=O)c3ccccc3)CCC2(C)C2CCC3(C)C(=C12)C(O)CC3C(C)CCCC(C)C (configuration not stated) | 182 to 183
CC(O)Cc1cccc(S(N)(=O)=O)c1 (configuration not stated) | 149 to 150
Cc1cccc2c(-c3ccc(Cl)cc3)nccc12 | 122 to 124
CC(=O)Nc1cc2c(cc1[N+](=O)[O-])OC(C)(C)[C@@H](O)[C@@H]2N (relative stereo) | 258 to 261
N#CC(C(=O)N1CCOCC1)=C1Nc2ccccc2O1 | 217 to 219
CCOC(=O)N(c1ccc(Cl)cc1N)c1ccc(Cl)cc1Cl | 137 to 139
C=CCc1cc(Br)ccc1OCC(=O)OCC | 70.5
Cn1c2cc(Cl)ccc2c(=O)c2cccn21 | 172 to 173
COc1ccc(COC(=O)c2ncn3c2[C@@H]2CCCN2C(=O)c2c(Cl)cccc2-3)cc1 | 185 to 186
COc1c(C(=O)O)ccc2ccccc12 | 118 to 122
Cc1nc(N)nc(N)c1N1CCN(Cc2ccccc2)CC1 | 209 to 210
COc1ccc(P2(=O)c3ccccc3CN2c2ccccc2)cc1OC (configuration not stated) | 84 to 86
CCn1c(=O)c2[nH]c(/C=C/c3ccc(F)c(Cl)c3)nc2n(CC)c1=O | > 270
CC(C)Oc1ncc(C#N)c(O)n1 | 166

SMILES | melting point [°C]
Cc1c(-c2ccc(S)nn2)ssc1=S | 245
Oc1ccnc2ncnn12 | 290
O=C(Nc1ccc(Cl)nc1)c1ccc(-n2ccnc2)c(F)c1 | 210 to 211
CSC(=O)C(=O)c1ccc2oc(-c3ccccc3)cc2c1 | 124 to 126
Cn1nc([N+](=O)[O-])nc1Br | 90.5 to 91.5
COc1ccc(C[C@@H](C(=O)O)[C@@H](O)c2ccc(F)cc2)cc1 (racemic) | 96 to 98
CCOC(=O)C(CCC#N)(C(=O)OCC)c1ccc([N+](=O)[O-])cn1 | 59.5 to 61
Cc1csc2c(C=O)ncn12 | 172 to 175
Cc1c(-c2ccc(O)cc2)n(Cc2ccc(OCCN(C(C)C)C(C)C)cc2)c2ccc(O)cc12 | 96 to 102
CCOC(=O)C1CN(Cc2ccccc2)C(=O)C(=C2SC=CS2)C1=O (configuration not stated) | 127 to 129
CC(CC(O)(C(=O)Nc1ccc2c(c1)COC2=O)C(F)(F)F)c1ccccc1 (configuration not stated) | 166 to 168
Cc1c(NC(=O)c2ccc(-c3ccccc3)cc2F)ccc2cc(CN3CCCC3)cnc12 | 166 to 168
O=c1[nH]c2c(Cl)cccc2c(=O)n1CCCN1CC2CCC(C1)N2c1ccc(Cl)cc1 | 167 to 169
Cn1c(COc2ccc(CC3SC(=O)N(C(c4ccccc4)(c4ccccc4)c4ccccc4)C3=O)cc2)nc2ccc(Oc3ccc(C#N)cc3)cc21 (configuration not stated) | 135 to 138
CC(C)(C)OC(=O)CC(=O)c1ccc(C#N)cc1 | 82 to 83
C=CCNc1cc(C(=O)O)cc(S(N)(=O)=O)c1Oc1ccccc1 | 223 to 225
O=C(O)CC1CCCc2c1n(Cc1ccc(Cl)cc1)c1ccc(F)cc21 (single isomer, unassigned; (-)) | 151 to 152
FS(F)(F)(F)(F)c1cc(Br)cc(S(F)(F)(F)(F)F)c1 | 65.9 to 66.4
COC(=O)c1cc(/C=N/O)ccc1[N+](=O)[O-] | 116
O=C(O)C(=O)c1ccc(OCCCCOc2ccccc2)cc1 | 103 to 105
Cn1cc(-c2ccccc2)c(=O)c(-c2ccc(C(F)(F)F)cc2)c1 | 164 to 166
